Data from PMC9983021, “Novel GluN2B-Selective NMDA Receptor Negative Allosteric Modulator Possesses Intrinsic Analgesic Properties and Enhances Analgesia of Morphine in a Rodent Tail Flick Pain Model” (ACS Chemical Neuroscience, 2023).
Where two headings read alike, the source gives them in different places.

Key:
GABAA = assay: Radioligand binding assay (NIMH PDSP); parameters: species or system human; settings: primary screen, 10 µM, quadruplicate
Experimental: (§1) Conventional competition and saturation radioligand binding assays were used to determine the affinities of reference standards and EU93-108. Experiments were carried out by the NIMH Psychoactive Drug Screening Program (PDSP) and were performed as previously described.[123]
(§2) The detailed experimental protocols for the radioligand assays are available on the NIMH PDSP website at https://pdsp.unc.edu/pdspweb/content/UNC-CH%20Protocol%20Book.pdf.
(§3) Receptor Mean % Receptor Mean % Receptor Mean %
(§4) Inhibition Inhibition Inhibition
(§5) Supplemental Table S4. Off-Target Actions of EU93-108: Primary GPCR Screen. Cloned human molecular targets were individually expressed and submitted to molecular target-based screening with initial screens performed at a final concentration of 10 µM in quadruplicate. Complete protocols for the assays have been previously published (Besnard J et al. 2012). Where inhibition greater than 50% was measured, secondary screens were performed wherein Ki values were calculated (see Table 4).

PBR = assay: Radioligand binding assay (NIMH PDSP); parameters: species or system human; settings: primary screen, 10 µM, quadruplicate
Experimental: as §1, §2, §3, §4, §5

hP2x = assay: Off-target ligand-gated ion channels in Xenopus oocytes; type: cell-based, human; settings: agonist 9 µM ATP; mean ± SEM
Experimental: (§6) EU93-108 was further examined for its behavior against common off-target receptors. First, selectivity for GluN2B over other ion channels in the brain was examined via two-electrode voltage clamp recordings of Xenopus oocytes expressing AMPA, kainate, nicotinic acetylcholine, serotonin, GABA, glycine, and ATP receptors. Current responses were tested with saturating concentrations of agonist in both the absence and presence of 10 μM EU93-108, and confirmed selectivity for GluN2B-containing NMDA receptors over AMPA, kainate, GABA, glycine, ATP, and 5-HT3A receptors (Supporting Table S3).
(§7) Receptor Agonist % Control
(§8) Supplemental Table S3. Off-target actions of EU93-108 at ligand-gated ion channels expressed in Xenopus oocytes. The mean ± standard error of the mean for agonist plus 10 μM EU93-108 as a percentage of agonist in vehicle are given for each compound and receptor tested. Number of oocytes tested is given in parentheses.

[1] = Determination of plasma and brain concentrations; type: in vivo; settings: Sprague-Dawley, rat, ip, male rats, 60 mg/kg i.p.
Experimental: Brain concentrations were measured from whole forebrain homogenate at each time point.
Trunk blood was collected in K-EDTA tubes and then spun in a microcentrifuge at 3500 rpm for 10 min to separate plasma, which was then transferred to a clean tube and frozen on dry ice. To prepare forebrain tissue samples, the whole brain was removed from the skull, the cerebellum and brainstem cut away, the meninges were removed, and the forebrain was then rinsed with ice-cold normal saline, after which it was blotted dry with filter paper and weighed on a microbalance. To each forebrain 2.5 mL of ice-cold 50 mM K-phosphate buffer (pH 7.4) was then added and the samples homogenized with a hand-held homogenizer. The brain homogenates were then transferred to clean tubes (2 per brain) and frozen on dry ice.
Plasma and brain homogenate samples were analyzed by LC-MS/MS operating in multiple reaction monitor mode (MRM) by Ricerca Biosciences (Dublin, OH). […] The amount of parent compound in each plasma or brain sample was calculated by comparing the response of the analyte in the sample to that of a standard curve (Ricerca, OH).

Sigma1 (σ1) [2] = assay: Radioligand binding assay (NIMH PDSP); parameters: species or system human; settings: ratio of Ki to the IC50 for EU93-108 (555 nM) at GluN2B
Sigma1 (σ1) [3] = molecular target: Sigma1 (σ1) (Homo sapiens, UniProt Q99720); assay: Radioligand binding assay (NIMH PDSP)
Sequence of Sigma1 (σ1) (Homo sapiens, UniProt Q99720) (Q99720 whole entry): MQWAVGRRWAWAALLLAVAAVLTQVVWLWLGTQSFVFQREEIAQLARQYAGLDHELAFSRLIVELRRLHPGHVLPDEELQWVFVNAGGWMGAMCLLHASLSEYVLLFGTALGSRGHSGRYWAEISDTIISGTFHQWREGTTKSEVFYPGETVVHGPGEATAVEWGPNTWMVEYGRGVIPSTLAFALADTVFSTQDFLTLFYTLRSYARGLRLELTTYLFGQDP

α7-nACh = molecular target: T1, α7-nACh (Homo sapiens, UniProt P36544); assay: Off-target ligand-gated ion channels in Xenopus oocytes; type: cell-based; settings: agonist 300 µM acetylcholine; mean ± SEM
T1 construct: expressed in transfected cells; host or cells: Xenopus oocytes
Experimental: as §6, §7, §8

α4β2-nACh = molecular target: T2, α4β2-nACh (Homo sapiens, UniProt P17787+P43681); assay: as above; type: cell-based; settings: agonist 10 µM acetylcholine; mean ± SEM
T2 construct: expressed in transfected cells; host or cells: Xenopus oocytes
T2 sequence (P43681 29-627 limits assumed): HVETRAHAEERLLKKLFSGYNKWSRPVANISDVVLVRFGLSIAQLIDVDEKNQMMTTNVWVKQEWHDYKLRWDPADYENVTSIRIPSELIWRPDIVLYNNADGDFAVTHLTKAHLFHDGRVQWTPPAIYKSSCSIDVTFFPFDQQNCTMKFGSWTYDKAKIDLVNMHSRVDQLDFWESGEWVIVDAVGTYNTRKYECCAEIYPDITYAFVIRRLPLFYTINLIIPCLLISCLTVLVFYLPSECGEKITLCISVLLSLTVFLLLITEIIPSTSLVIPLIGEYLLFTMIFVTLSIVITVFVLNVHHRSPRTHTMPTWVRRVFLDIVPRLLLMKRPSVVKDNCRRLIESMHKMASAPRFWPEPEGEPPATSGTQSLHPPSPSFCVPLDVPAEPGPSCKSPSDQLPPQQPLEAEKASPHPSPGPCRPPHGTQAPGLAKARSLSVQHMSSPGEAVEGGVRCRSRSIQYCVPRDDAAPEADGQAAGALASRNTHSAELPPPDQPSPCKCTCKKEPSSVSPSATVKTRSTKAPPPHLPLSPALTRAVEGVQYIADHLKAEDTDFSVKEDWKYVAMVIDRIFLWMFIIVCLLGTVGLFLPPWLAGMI
T2 sequence (P17787 26-502): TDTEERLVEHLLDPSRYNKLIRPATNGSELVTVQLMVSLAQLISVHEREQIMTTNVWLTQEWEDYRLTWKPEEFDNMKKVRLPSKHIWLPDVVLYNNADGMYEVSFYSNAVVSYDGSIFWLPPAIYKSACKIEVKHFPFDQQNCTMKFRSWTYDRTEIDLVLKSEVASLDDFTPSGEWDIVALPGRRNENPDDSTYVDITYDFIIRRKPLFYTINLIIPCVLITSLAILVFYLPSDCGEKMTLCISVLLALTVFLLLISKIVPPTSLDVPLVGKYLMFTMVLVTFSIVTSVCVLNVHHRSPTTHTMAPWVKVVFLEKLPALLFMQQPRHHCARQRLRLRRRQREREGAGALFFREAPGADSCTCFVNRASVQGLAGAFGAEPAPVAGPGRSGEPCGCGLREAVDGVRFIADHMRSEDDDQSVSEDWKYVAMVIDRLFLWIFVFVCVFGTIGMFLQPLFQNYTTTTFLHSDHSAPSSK
Experimental: as §6, §7, §8

5-HT3A = molecular target: T3, 5-HT3A (Homo sapiens, UniProt P46098); assay: as above; type: cell-based; settings: agonist 100 µM serotonin; mean ± SEM
T3 construct: expressed in transfected cells; host or cells: Xenopus oocytes
T3 sequence (P46098 24-478, species assumed): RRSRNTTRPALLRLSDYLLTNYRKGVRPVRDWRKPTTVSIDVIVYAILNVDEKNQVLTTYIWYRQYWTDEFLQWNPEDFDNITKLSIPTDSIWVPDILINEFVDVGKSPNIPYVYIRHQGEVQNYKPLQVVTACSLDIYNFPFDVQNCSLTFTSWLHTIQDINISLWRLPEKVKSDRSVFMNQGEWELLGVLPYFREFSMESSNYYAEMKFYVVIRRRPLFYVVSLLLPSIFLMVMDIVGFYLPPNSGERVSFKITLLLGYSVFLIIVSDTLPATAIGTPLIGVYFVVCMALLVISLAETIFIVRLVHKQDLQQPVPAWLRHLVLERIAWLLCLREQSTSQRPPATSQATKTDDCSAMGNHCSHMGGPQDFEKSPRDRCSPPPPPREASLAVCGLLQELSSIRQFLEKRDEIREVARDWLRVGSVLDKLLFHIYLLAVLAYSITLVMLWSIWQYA
Experimental: as §6, §7, §8

ρ-GABAC = assay: as above; type: cell-based; settings: agonist 100 µM GABA; mean ± SEM
Experimental: as §6, §7, §8

GluA2-R607Q = molecular target: T4, GluA2-R607Q (Homo sapiens, UniProt P42262); assay: as above; type: cell-based; settings: agonist 100 µM glutamate; mean ± SEM
T4 construct: expressed in transfected cells; host or cells: Xenopus oocytes
Experimental: as §6, §7, §8

α1β2γ2S-GABAA = molecular target: T5, α1β2γ2S-GABAA (Homo sapiens, UniProt P14867+P18507+P47870); assay: as above; type: cell-based; settings: agonist 100 µM GABA; mean ± SEM
T5 construct: expressed in transfected cells; host or cells: Xenopus oocytes
Experimental: as §6, §7, §8

hGluA3-L531Y = molecular target: T6, hGluA3-L531Y (Homo sapiens, UniProt P42263, L513Y); assay: as above; type: cell-based; settings: agonist 100 µM glutamate; mean ± SEM
T6 construct: expressed in transfected cells; host or cells: Xenopus oocytes
Experimental: as §6, §7, §8

hGluN1/GluN3A = molecular target: T7, hGluN1/GluN3A (Homo sapiens, UniProt Q05586+Q8TCU5); assay: as above; type: cell-based; settings: agonist 100 µM glycine; mean ± SEM
T7 construct: expressed in transfected cells; host or cells: Xenopus oocytes
T7 sequence (Q8TCU5 24-1115, other chains not shown): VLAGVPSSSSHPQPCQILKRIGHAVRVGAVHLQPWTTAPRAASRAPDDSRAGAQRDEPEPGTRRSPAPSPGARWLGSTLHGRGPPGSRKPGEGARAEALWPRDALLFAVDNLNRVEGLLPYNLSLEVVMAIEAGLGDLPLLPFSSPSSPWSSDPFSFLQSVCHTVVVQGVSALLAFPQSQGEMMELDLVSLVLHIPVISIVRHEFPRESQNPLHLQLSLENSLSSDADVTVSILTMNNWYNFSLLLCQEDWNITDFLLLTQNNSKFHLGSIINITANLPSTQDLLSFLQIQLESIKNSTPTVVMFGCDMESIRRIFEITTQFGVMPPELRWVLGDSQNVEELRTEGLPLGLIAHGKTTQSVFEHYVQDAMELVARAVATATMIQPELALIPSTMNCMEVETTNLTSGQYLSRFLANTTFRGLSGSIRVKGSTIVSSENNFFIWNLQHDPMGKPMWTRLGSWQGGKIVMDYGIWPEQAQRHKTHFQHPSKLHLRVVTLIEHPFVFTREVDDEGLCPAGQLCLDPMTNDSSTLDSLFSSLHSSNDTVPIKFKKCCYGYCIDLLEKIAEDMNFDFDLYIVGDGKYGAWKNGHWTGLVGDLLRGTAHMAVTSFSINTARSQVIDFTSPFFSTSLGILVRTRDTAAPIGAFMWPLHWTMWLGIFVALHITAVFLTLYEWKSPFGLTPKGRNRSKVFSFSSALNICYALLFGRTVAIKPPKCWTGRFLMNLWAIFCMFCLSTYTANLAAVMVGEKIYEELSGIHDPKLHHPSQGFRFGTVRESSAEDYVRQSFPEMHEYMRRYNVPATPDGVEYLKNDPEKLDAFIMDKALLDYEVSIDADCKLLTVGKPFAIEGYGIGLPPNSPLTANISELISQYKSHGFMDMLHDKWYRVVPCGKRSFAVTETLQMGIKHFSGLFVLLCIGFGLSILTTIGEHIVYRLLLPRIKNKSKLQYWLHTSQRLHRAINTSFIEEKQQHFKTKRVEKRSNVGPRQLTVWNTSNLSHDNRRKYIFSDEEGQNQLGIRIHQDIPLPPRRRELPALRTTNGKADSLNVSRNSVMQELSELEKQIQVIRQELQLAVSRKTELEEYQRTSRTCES
Experimental: as §6, §7, §8

GluA1 = molecular target: T8, GluA1 (Homo sapiens, UniProt P42261); assay: as above; type: cell-based; settings: agonist 100 µM glutamate; mean ± SEM
T8 construct: expressed in transfected cells; host or cells: Xenopus oocytes
Experimental: as §6, §7, §8

α1-Glycine = molecular target: T9, α1-Glycine (Homo sapiens, UniProt P23415); assay: as above; type: cell-based; settings: agonist 100 µM glycine; mean ± SEM
T9 construct: expressed in transfected cells; host or cells: Xenopus oocytes
Experimental: as §6, §7, §8

rGluN1/GluN3B = molecular target: T10, rGluN1/GluN3B (Rattus norvegicus, UniProt P35439+Q8VHN2); assay: as above; type: cell-based; settings: agonist 100 µM glycine; mean ± SEM
T10 construct: expressed in transfected cells; host or cells: Xenopus oocytes
T10 sequence (Q8VHN2 25-1002, other chains not shown): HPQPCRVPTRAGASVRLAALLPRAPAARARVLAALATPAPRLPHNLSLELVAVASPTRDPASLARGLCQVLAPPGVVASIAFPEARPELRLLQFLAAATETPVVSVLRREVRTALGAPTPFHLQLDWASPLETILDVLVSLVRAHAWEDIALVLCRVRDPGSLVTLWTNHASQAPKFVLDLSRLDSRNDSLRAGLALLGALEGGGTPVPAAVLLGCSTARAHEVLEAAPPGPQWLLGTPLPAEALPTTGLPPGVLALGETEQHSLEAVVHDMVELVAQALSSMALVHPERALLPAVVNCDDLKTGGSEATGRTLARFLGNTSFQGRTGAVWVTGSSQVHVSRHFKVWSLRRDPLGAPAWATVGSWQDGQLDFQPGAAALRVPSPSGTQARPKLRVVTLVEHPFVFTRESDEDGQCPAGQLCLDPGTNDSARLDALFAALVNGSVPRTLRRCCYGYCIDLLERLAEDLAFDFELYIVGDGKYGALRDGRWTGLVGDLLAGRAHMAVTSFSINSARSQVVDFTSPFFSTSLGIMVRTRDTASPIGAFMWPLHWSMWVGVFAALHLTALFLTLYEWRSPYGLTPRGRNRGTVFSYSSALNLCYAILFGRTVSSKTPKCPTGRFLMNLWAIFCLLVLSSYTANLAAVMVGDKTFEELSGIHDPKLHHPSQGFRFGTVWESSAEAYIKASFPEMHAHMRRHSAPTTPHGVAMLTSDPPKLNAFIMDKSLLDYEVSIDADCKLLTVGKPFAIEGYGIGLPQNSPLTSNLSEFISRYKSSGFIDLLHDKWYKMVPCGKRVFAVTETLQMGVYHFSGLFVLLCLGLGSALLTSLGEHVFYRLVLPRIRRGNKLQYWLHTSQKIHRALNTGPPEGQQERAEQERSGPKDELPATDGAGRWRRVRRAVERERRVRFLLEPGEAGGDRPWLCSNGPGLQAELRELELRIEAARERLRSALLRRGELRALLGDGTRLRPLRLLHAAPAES
Experimental: as §6, §7, §8

GluK2 = molecular target: T11, GluK2 (Homo sapiens, UniProt Q13002); assay: as above; type: cell-based; settings: agonist 100 µM glutamate; mean ± SEM
T11 construct: expressed in transfected cells; host or cells: Xenopus oocytes
T11 sequence (Q13002 32-908, species assumed): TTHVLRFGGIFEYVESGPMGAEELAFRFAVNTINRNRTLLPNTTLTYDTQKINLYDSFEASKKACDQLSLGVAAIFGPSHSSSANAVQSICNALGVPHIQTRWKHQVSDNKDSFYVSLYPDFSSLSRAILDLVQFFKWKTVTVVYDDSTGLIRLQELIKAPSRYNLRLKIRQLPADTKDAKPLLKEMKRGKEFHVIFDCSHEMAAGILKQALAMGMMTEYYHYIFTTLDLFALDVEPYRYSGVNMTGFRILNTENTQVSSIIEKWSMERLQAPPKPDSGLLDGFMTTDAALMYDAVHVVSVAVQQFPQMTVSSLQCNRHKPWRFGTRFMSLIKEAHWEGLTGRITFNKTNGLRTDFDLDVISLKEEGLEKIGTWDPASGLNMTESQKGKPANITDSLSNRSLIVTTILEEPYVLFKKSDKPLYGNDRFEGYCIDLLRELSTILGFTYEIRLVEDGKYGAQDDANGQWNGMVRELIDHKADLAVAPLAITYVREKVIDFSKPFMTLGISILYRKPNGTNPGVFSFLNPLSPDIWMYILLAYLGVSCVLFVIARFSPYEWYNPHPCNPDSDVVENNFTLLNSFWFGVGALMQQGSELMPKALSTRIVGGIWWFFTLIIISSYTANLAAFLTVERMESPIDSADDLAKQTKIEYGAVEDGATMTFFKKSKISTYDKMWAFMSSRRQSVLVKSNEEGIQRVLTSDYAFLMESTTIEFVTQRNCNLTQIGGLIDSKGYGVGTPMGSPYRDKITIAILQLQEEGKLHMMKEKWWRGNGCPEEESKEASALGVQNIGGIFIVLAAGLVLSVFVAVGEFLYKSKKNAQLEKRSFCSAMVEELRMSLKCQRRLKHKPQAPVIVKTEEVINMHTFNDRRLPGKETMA
Experimental: as §6, §7, §8

[4] = molecular target: triheteromeric rat GluN1/GluN2Ac1/GluN2Bc2 (r2Ac1/r2Bc2) (Rattus norvegicus, UniProt P35439+Q00959+Q00960, A876H/F846L/G856D/H848F/K857R/M851T/M860L/Q845K/V861L); assay: Concentration-inhibition curves, oocytes, C1/C2-tagged NMDARs; type: cell-based

CS(=O)(=O)Nc1ccc(OC[C@@H](O)CN2CCN(c3ccc(F)c(F)c3)CC2)cc1 [EU93-108, (S)-N-(4-(3-(4-(3,4-Difluorophenyl)piperazin-1-yl)-2-hydroxypropoxy)phenyl)methanesulfonamide]
Mean % Inhibition (GABAA): 1.91%
Mean % Inhibition (PBR): -0.34%
% Control 10 µM EU93-108 (hP2x): 96.6 ± 4.3%
Kp at 60 min ([1]; brain (forebrain homogenate) / plasma, from Cmax, read-out: brain-to-plasma ratio): 0.6
Cmax ([1]; brain (whole forebrain homogenate), whole forebrain homogenate, read-out: Cmax in brain): 18 µM
half-life ([1]; plasma and brain (forebrain homogenate)): > 240 min
Tmax ([1]; plasma and brain (forebrain homogenate), read-out: time of peak concentration (Tmax) (converted)): 30 min
Cmax ([1]; plasma, read-out: Cmax in plasma): 30 µM
Ki/IC50 of EU93-108 (Sigma1 (σ1) [2]): 0.91
inhibition at 10 µM (Sigma1 (σ1) [3]; primary screen, 10 µM, quadruplicate): 69.2%
Ki (Sigma1 (σ1) [3]; secondary screen, binding competition curve): 505 nM
% Control 10 µM EU93-108 (α7-nACh): 70.9 ± 6.5%
% Control 10 µM EU93-108 (α4β2-nACh): 3.2 ± 0.7%
% Control 10 µM EU93-108 (5-HT3A): 92.8 ± 2.7%
% Control 10 µM EU93-108 (ρ-GABAC): 97 ± 1.5%
% Control 10 µM EU93-108 (GluA2-R607Q): 98.4 ± 0.57%
% Control 10 µM EU93-108 (α1β2γ2S-GABAA): 92.8 ± 1.5%
% Control 10 µM EU93-108 (hGluA3-L531Y): 94.7 ± 5.1%
% Control 10 µM EU93-108 (hGluN1/GluN3A): 103.6 ± 1.7%
% Control 10 µM EU93-108 (GluA1): 101.3 ± 1.9%
% Control 10 µM EU93-108 (α1-Glycine): 105 ± 6.6%
% Control 10 µM EU93-108 (rGluN1/GluN3B): 108.8 ± 4.0%
% Control 10 µM EU93-108 (GluK2): 88.1 ± 4.4%
residual current remaining at 10 μM EU93-108 ([4]; 10 μM, % of maximal response, n = 12): 54%
IC50 ([4]; 100 μM glutamate and 100 μM glycine, −40 mV, pH 7.4, n = 12): 543 nM
nH ([4]; Hill slope factor of the inhibition curve, Table S1): -0.92
Ymin ([4]; residual response, Table S1, N = 12): 54.0
